Source: patent US20250282795A1, “EGFR Inhibitors in cancer treatment” (Celyn Therapeutics, Inc., priority 2022, published 2025)

Tests used:
Format in all cases: cell-based
[1] = tested on: Ba/F3 (A767_dupASV); assay: Cellular growth inhibition assay (CellTiter-Glo), Ba/F3 (A767_dupASV); conditions: Mus musculus, BaF3, 72 h; 3 days of incubation; read-out: Ba/F3 (A767_dup ASV) CC50
Experimental: (§1) Example E. Cellular Growth Inhibition Assay
(§2) Ba/F3(Empty vector) (Signosis), Ba/F3(Wild type) (Signosis), Ba/F3(L^858R+T790M) (Signosis), Ba/F3(A767_dupASV) (Signosis), Ba/F3(D770_N771insSVD) (Signosis), Ba/F3(H773_V774insNPH) (Signosis) were seeded at a density of 4000 cells per well in a CellBIND® 384-well Flat Clear Bottom Black Polystyrene Microplates (Coming, USA, Cat #3770) in 45 μl total volume of RPMI (PanEco, Cat #C330, Russia) with […] (HyClone, Cat #SV30160.03) and with 10 ng/ml rmIL-3 (RD systems, USA, Cat #403-ML-025) (for BaBF3(Empty vector)) and with 10 ng/ml rhEGF (ThermoFisher, USA, Cat #PHG0311L) (for BaCF3(Wild type)). 500× compounds solutions in DMSO (Sigma Cat #D2650) were prepared into Cmpnds plate (DiamondWell Plate, Axigen, Cat #P-384-120SQ-C—S) and DMSO only control was included. 1.l of 500× compounds (Cmpnds plate) was added to 49 µl of culture medium into Dilution plate (Diamond Well Plate, Axigen, Cat #P-384-120SQ-C—S), mixed and then 5 μl of 10× compounds solutions were transferred to cells followed by centrifugation at 100 g for 1 min. Final DMSO concentration was 0.2% o. After 3 days of incubation 10.l of CellTiter-Glo (Promega, CAT #G7572) were added to the cells, plate was centrifuged at 100 g for 1 min and luminescence signal was measured using Microplate Reader (CLARIOStar).

[2] = Cellular growth inhibition assay (CellTiter-Glo), Ba/F3 (Empty vector); conditions: mouse, Ba/F3 cells with empty vector; Ba/F3 (Empty vector) with 10 ng/ml rmIL-3, 3 days of incubation
Experimental: as §1, §2

[3] = tested on: Ba/F3 (L858R + T790M); assay: Cellular growth inhibition assay (CellTiter-Glo), Ba/F3 (L858R+T790M); conditions: Mus musculus, BaF3, 72 h; 3 days of incubation
Experimental: as §1, §2

[4] = tested on: Ba/F3 (H773_V774insSVD); assay: Cellular growth inhibition assay (CellTiter-Glo), Ba/F3 (H773_V774insSVD); conditions: Mus musculus, BaF3, 72 h; 3 days of incubation; read-out: Ba/F3 (H773_V774 insSVD) CC50
[5] = tested on: Ba/F3 (D770_N771insSVD); assay: Cellular growth inhibition assay (CellTiter-Glo), Ba/F3 (D770_N771insSVD); conditions: Mus musculus, BaF3, 72 h; 3 days of incubation; read-out: Ba/F3 (D770_N771 insSVD) CC50
Experimental: as §1, §2

[6] = tested on: Ba/F3 (EGFRwt); assay: Cellular growth inhibition assay (CellTiter-Glo), Ba/F3 (EGFRwt); conditions: Mus musculus, BaF3, 72 h; Ba/F3 (Wild type) with 10 ng/ml rhEGF, 3 days of incubation
Experimental: as §1, §2

COc1c(F)cccc1Nc1c2[nH]c3c1C(=O)NC[C@H]3CC(=O)N1CCC[C@H]1C(=O)NCCCOc1cnccc1-2 [Compound 148, (16aS,22aR)-23-(3-fluoro-2-methoxyanilino)-14,15,16a,17,18,19,22,22a-octahydro-2H,12H-4,6-(metheno)dipyrido[3,4-k: 4′,3′-o]pyrrolo[2,1-g][1,5,8,13]oxatriazacyclohexadecine-3,16,21(1H,5H,13H)-trione]
> 10 µM: CC50 [1] | CC50 at 3 days [2] | CC50 [3] | CC50 [4] | CC50 [5] | CC50 [6]

COc1c(F)cccc1Nc1c2[nH]c3c1C(=O)NCC3CC(=O)N(C)CC(=O)NCCCOc1cnccc1-2 (stereo not drawn) [Compound 149, 21-(3-fluoro-2-methoxyanilino)-12-methyl-6,7,8,9,11,12,14,14a,15,16-decahydro-18,20-(metheno)dipyrido[3,4-k: 4′,3′-o][1,5,8,13]oxatriazacyclohexadecine-10,13,17(19H)-trione]
> 10 µM: CC50 at 3 days [2] | CC50 [3] | CC50 [4] | CC50 [6]
1 to 10 µM: CC50 [1] | CC50 [5]

COc1c(F)cccc1Nc1c2[nH]c3c1C(=O)NCC3CC(=O)NCCOCCOCCOc1cnccc1-2 (stereo not drawn) [Compound 150, 23-(3-fluoro-2-methoxyanilino)-6,7,9,10,13,14,16,16a,17,18-decahydro-20,22-(metheno)dipyrido[3,4-m: 4′,3′-q][1,4,7,10,15]trioxadiazacyclooctadecine-15,19(12H,21H)-dione]
> 10 µM: CC50 [1] | CC50 at 3 days [2] | CC50 [3] | CC50 [4] | CC50 [5] | CC50 [6]

COc1c(F)cccc1Nc1c2[nH]c3c1C(=O)NCC3CC(=O)N1CCN(CCOCCOc3cnccc3-2)CC1 (stereo not drawn) [Compound 153, 29-(3-Fluoro-2-methoxyanilino)-18,21-dioxa-1,6,10,15,24-pentaazapentacyclo[22.2.2.1^8,110^4,9.0^12,17]nonacosa-8,11(29),12(17),13,15-pentaene-2,7-dione]
> 10 µM: CC50 [1] | CC50 at 3 days [2] | CC50 [3] | CC50 [4] | CC50 [5] | CC50 [6]

COc1c(F)cccc1Nc1c2[nH]c3c1C(=O)NC[C@@H]3CCCN1CCO[C@H](COc3cnccc3-2)C1 [Compound 157, (7S)-21-[(3-Fluoro-2-methoxyphenyl)amino]-6,7,9,10,12,13,14,14a,15,16-decahydro-7,11-methano-18,20-methenodipyrido[3,4-k:4′,3′-o][1,4,7,13]dioxadiazacyclohexadecin-17(19H)-one]
> 10 µM: CC50 [1] | CC50 at 3 days [2] | CC50 [3] | CC50 [4] | CC50 [5] | CC50 [6]
